In paper PMC3248991 (2011):

Target: HDM2 (MDM2) (Homo sapiens, UniProt Q00987)
Experiment: HTR-FRET competition assay of biotin-p53 / GST-HDM2 binding

Chain of HDM2 (MDM2) (Q00987 whole entry): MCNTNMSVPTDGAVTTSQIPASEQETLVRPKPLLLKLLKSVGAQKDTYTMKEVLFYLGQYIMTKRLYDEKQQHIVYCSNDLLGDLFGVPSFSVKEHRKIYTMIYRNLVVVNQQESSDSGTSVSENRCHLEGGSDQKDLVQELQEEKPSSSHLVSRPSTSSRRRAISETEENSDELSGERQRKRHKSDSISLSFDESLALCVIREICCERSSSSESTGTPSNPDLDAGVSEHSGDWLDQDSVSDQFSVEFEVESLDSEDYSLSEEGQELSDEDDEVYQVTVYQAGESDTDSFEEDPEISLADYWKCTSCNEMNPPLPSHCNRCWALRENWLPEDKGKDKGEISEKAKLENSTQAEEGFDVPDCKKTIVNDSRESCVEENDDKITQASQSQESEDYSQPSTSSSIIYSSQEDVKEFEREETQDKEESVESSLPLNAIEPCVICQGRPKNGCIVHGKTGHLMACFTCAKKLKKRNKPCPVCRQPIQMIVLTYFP

`CCC[C@@H](C)[C@H](O)[C@H](C)[C@@H](O)[C@@H](C)[C@H](Cc1nc(C2=N[C@@](C)(C3=N[C@@](C)(C(=O)N[C@H]([C@@H](O)[C@@H](C)C(=O)O)[C@@H](C)CC)CS3)CS2)cs1)OC` [compound 1, hoiamide D] was tested, and the IC50 was 4.5 µM.
